One assay deals with phospho-MLKL. In words: Intravitreal treatment of DKO mice, phospho-MLKL immunostaining of retina. Format: in vivo, ABCA4−/− RDH8−/− double knock-out mice (DKO). On the procedure: Animals. Pigmented ABCA4^−/− RDH8^−/− double knock-out mice (DKO), free of rd8 mutation, were purchased from Jackson laboratories and every 10 generations were in house backcrossed to the C57BL6J control strain, to prevent genetic drifts. Genotyping was performed at Transnetyx (Memphis, TN). Only mice with ABCA4, RDH8, RPE65-Leu450 but no crb1 mutations (retinal degeneration slow) were maintained in the colony. Controls C57BL/6J (Rpe65-Leu450, crb1negative) were also Jackson's lab. All mice were housed at Weill Cornell Medicine's animal facility under a 12 h light (˜10 lux)/12 h dark cycle environment or under complete darkness. Experimental manipulations in the dark were done under dim red light transmitted through a Kodak No. 1 safelight filter (transmittance >560 nm). No retinal degeneration or necroptosis markers were appreciably detected in 20 months or older C57BL6/N (Rpe65-Met450, crb1 positive) obtained from the NAI/NIH. All animal procedures and experiments were approved by the Animal Care and Use Committee of Weill Cornell Medical College in agreement with the guidelines established by the NIH Office of Laboratory Animal Welfare and the Association of Research for Vision and Ophthalmology (ARVO) statement for the use of animals in ophthalmic research.
RPE and Neural retina flat mounts. Mouse eyes were enucleated and placed in 4% PFA in PBS for 1 h at room temperature. After fixing, a 23G needle was used to make a hole at the limbus area and iris scissors used to cut around the circumference of the limbus, remove the cornea, iris and lens, separate the neuronal retina and sclera by micro-forceps. Neuronal retina and RPE layer were dissected out and incubated with blocking buffer (1% BSA and 0.3% Triton-X-100 in PBS) for at least 20 min. Primary antibodies were added to the blocking buffer and kept at 4° C. overnight. Retina and RPE layer were washed and incubated with secondary antibodies for at least 30 min at room temperature, then washed with PBS three times. Under the dissection microscope, retina or RPE layer was cut into a four-leaf clover shape and mount on the slides in mount medium (EMS glycerol mounting medium with DAPI and DABCO, cat. No. 17989-61). Slides were stored at 4° C. until imaging.
Cryosections and Immunofluorescence staining. Mouse eyes were fixed with 4% PFA and penetrated with 30% sucrose overnight at 4° C., then cryopreserved in Tissue-Tek OCT compound (Sakura Finetek, Torrance, CA, USA) and cut into 15 μm sections. Sections were blocked with 1% BSA and 0.1% Triton-X-100 PBS, and then immunofluorescence staining was performed using standard methods and the appropriate dilutions of primary antibodies against p- p-MLKL (cell signaling), XBP1s (Biogend), Iba-1 (Abcam), CD11b (Millipore), Lamp2 (hybridoma bank), CellRox and DRAQ7 (Invitrogen), Rhodopsin (Abcam), phalloidin-CF660 (Biotium, cat.no. 0052), Hoechst33324, caspase3 (clone9664, Cell signaling). Subsequently, slides were incubated with Alexa-647, Alexa-594 secondary antibodies, and counterstained with Hoechst33324. Negative controls were included in each staining, and slides were mounted with anti-fade mount medium. Slides were stored at 4° C. before analysis on SD microscope using Zen software. For paraffin sections, mouse eyes were embedded in paraffin and cut into 5-μm sections. […]
Pharmacological treatment of mice. […] The exact volume of Mock reagent or Kira6 was determined by 10 μl Hamilton syringe. […]

The test system of a further assay is hfRPE. The experiment in a line: Light-independent lipofuscin cell-death/viability assay in hfRPE. It is filed as cell-based, Human. As to the method: Cell culture. Human retinal pigment epithelium (ARPE-19) cells were obtained from ATCC and were cultured in Dulbecco's modified Eagle's medium (DMEM) supplemented with 10% FBS and 1% penicillin/streptomycin. Cells were kept in an incubator with 5% C02 and 95% humidified air at 37° C. Human fetal RPE (hfRPE) cells from donors at 16 to 18 weeks gestation were cultured at 37° C., 5% C02 in RPE medium. To grow polarized hfRPE cells, the cells were seeded in 12 well transwell plate in 1% RPE medium with Rock kinase inhibitor for the first week. After the first week, cells were cultured in normal 1% RPE medium for 3 weeks. Cells were used in passage 1.
Real time monitoring of necrotic and apoptotic cell-death.

Another assay relates to pMLKL. In words: Fluorescence microscopy of pMLKL plasma membrane translocation in ARPE-19 monolayers. Format: cell-based, Human. The conditions noted are these: ARPE-19 with A2E or ATRD. The source says:
Chronic accumulation of polymeric pMLKL could account for progressive damage in pigmented retinas as they amass LF.

The next assay concerns human MLKL. In words: Western blot of Ser358 phospho-MLKL, phosphorylation and polymerization of MLKL. Format: cell-based. As to conditions: non-reducing conditions, cells with A2E/ATRD. On the procedure:
Immunoblotting. Total cell lysates were extracted using RIPA lysis buffer (50 mM TrisHCl, Ph 8.0, 150 mM NaCl, 1% NP40, 0.5% Sodium Deoxycholate, 0.1% SDS, protease-phosphatase inhibitor) after the incubation of the specific sample group in a 48 well plate. Sonication or syringing (20 times) was done followed by centrifugation at 12,000×g for 10 mins and the supernatant was collected and stored in −80° C. Proten concentration from homogenates were assessed by Pierce Rapid Gold BCA protein assay kit (ThermoFisher Scientific, cat.no. A53225). Then 30 μg of protein was analyzed by standard SDS-PAGE gel. Samples were mixed 4:1 (v:v) with Nupage loading buffer with or without 8% 0-mercaptoethanol and heated for 10 min at 72° C. SDS-PAGE was done using 4-12% Nupage gel and buffer (Life, NP0335BOX). Next, SDS-PAGE gel was transferred to nitrocellulose membrane (Whatman, PROTAN BA83) overnight at 20V. The following day, 5% milk in TBS was used for 2 h blocking the membrane and then primary antibody was added in TBST (TBS, 0.1% Tween-20) for overnight at 4° C. Next day membranes were washed and incubated for 2 hours at room temperature with HRP conjugated secondary antibody (cat #G21234, Invitrogen) at 1:10,000 dilution. After 3 more washed membranes were probed with enhanced chemiluminescence (ECL) reagent and detected using an X-ray films for chemiluminescence image (GE healthcare, RPN2106). Scanning/imaging and quantitation of the image was done using silverfast 8 application software and Fiji Image J. Antibodies for Western blotting were list in FIG. 10.
For its phosphorylation, MLKL and its kinase need to be recruited into multiprotein complexes, known as necrosomes (FIG. 4O). Necrosomes are not well conserved among species and vary also with the nature of the stimuli that triggers their formation. […] Considering that phosphorylation of human MLKL at Ser358 (pMLKL), is a hallmark triggering event and marker of necroptosis, the Ser358-phosphorylation and polymerization status of MLKL in cells with LF was determined. […] A prerequisite for the assembly of these RIP kinases into necrosomes was their phosphorylation.

As to `CC(C)(C)c1nc(-c2ccc(NC(=O)Nc3cccc(C(F)(F)F)c3)c3ccccc23)c2c(N)nccn12` [KIRA6], in the assay on phospho-MLKL (26 month old DKO mice, intraocular, a week later), the “necroptosis, intracellular and plasma membrane pMLKL labelling in RPE flat mounts” value is reported as “abrogated necroptosis”. For the same compound, in the assay on phospho-MLKL (demelanized paraffin cross-sections, 20 month old DKOs, control 33%), the “pMLKL/XBP1s double positive cells (RPE and microglia)” value amounted to 4%. Also, in the assay with hfRPE, the “survival to LF in hfRPE” value is “promote survival to LF”. Further, the “effect on LF-induced pMLKL plasma membrane localization” value in the assay with pMLKL is given as “inhibition of pMLKL plasma membrane translocation”. For the same compound, the “effect on LF-induced phosphorylation and polymerization of MLKL” value in the assay with human MLKL was “prevents phosphorylation and polymerization of MLKL”.

Turning to `N=C1S/C(=C\c2cn[nH]c2-c2ccc(F)cc2)C(=O)N1c1nccs1` [Nec7, Necrostatin 7], the “membrane and cytosolic pMLKL labeling in RPE flat mounts” value in the assay with phospho-MLKL (12 month old DKOs, single intraocular injection, analyzed one week later) is “reduced to undetectable levels”. Further, the “membrane and cytosolic phospho-MLKL staining in RPE flat mounts” value in the assay on phospho-MLKL (26-month-old DKO mice, 2 μl intraocular, a week later) was “reduced membrane and cytosolic phospho-MLKL staining to undetectable levels”. Moreover, in the assay with phospho-MLKL (DKO mice, intraocular, 1 week earlier), the “phospho-MLKL (necroptosis) labeling in neuroretina-flat mounts” value is reported as “significantly reduced”. In the assay with hfRPE, the “survival to LF in hfRPE” value is reported as “promote survival to LF”. Further, the “effect on LF-induced pMLKL plasma membrane localization” value in the assay on pMLKL was “effectively reverted the pMLKL membrane localization pattern”. Besides, the “effect on LF-induced phosphorylation and polymerization of MLKL” value in the assay on human MLKL is “reduced LF-induced phosphorylation and polymerization of MLKL”.

The values are drawn from patent publication US20240082221A1, “COMPOSITIONS AND METHODS FOR THE IDENTIFICATION OF COMPOUNDS THAT PROTECT AGAINST LIPOFUSCIN CYTOTOXICITY” (priority 2021, published 2024).
